Source: patent publication US10428055B2, “Substituted piperidines having GPR119 agonistic activity” (DONG-A ST CO., LTD., priority 2014, dated 2019)

Molecular target: T1, Human GPR119 (Homo sapiens, UniProt Q8TDV5)
T1 construct: host or cells: HEK293 (ATCC)
T1 sequence (Q8TDV5 1-335): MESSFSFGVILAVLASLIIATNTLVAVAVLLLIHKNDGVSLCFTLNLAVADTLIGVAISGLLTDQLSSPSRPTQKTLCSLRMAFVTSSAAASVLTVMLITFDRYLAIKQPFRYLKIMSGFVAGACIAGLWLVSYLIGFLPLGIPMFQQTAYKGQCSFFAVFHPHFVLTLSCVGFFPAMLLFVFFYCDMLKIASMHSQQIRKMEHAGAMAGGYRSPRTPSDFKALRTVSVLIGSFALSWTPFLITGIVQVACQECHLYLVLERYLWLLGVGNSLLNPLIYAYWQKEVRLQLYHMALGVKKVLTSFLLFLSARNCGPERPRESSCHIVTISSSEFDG
Assay: Human GPR119 activation assay (cAMP, HTRF)
Assay type: cell-based
Details: 1 h, HEK293 cells transiently expressing human GPR119, relative to maximum effect of OEA, read-out: hGPR119 activation ability (cAMP assay) Relative Response % vs OEA; for Emax at 0.001 µM: 1 nM; for Emax at 0.01 µM: 10 nM
Excerpt: <Experimental Example 1>Human GPR119 activation assay
Human GPR119 was temporarily expressed on cells, thereby quantifying the amount of cyclic adenosine 3′,5′-monophosphate (cAMP) increased upon activating GPR119 by the compound of the present invention, using the product from Cysbio, by a method of HTRF (homogeneous time resolved fluorescence), and such quantification was used to refer to efficacy on GPR119 activation.
Human GPR119 expression vector (Origene) was overexpressed in […] renal epithelial cells (HEK293) (ATCC), and the cells were stabilized for 48 hours. With a solution of 11.1 mM glucose, 0.1% bovine serum albumin, and 0.5 mM IBMX (3-isobutyl-1-methylxanthine) which is a phosphodiesterase inhibitor being added to a KRBH (Krebs-Ringer Bicarbonate HEPES; Hou ZQ. et al., Mol Cell Endocrinol, 2008(291):71-78) buffer, the cells were pre-treated for 10 minutes. Thereafter, the cells were treated with the same solution containing a drug for 60 minutes, then the supernatant was removed, and the increase in cAMP in cells was quantified using a Cysbio cAMP HiRange kit.
As to the maximum efficacy of compounds tested, multiple concentration assessment for the compounds of the present invention was carried out, thereby assessing the relative activation level (%) to the maximum effect of oleoylethanolamide (OEA), an endogenous ligand of GPR119.

| Compound | Emax at 0.001 µM | Emax at 0.01 µM |
| --- | --- | --- |
| CCc1cnc(N2CCC(CCCOc3cc(F)c(C4=NCCO4)c(F)c3)CC2)nc1 [Example 1, 2-(4-(3-(1-(5-ethylpyrimidin-2-yl)piperidin-4-yl)propoxy)-2,6-difluorophenyl)-4,5-dihydrooxazole] | 50.7% | 116% |
| CCc1cnc(N2CCC(CCCOc3cc(F)c(C4=N[C@H](C)CO4)c(F)c3)CC2)nc1 [Example 2, (R)-2-(4-(3-(1-(5-ethylpyrimidin-2-yl)piperidin-4-yl)propoxy)-2,6-difluorophenyl)-4-methyl-4,5-dihydrooxazole] | 34.8% | 113% |
| CCc1cnc(N2CCC(CCCOc3cc(F)c(C4=N[C@@H](C)CO4)c(F)c3)CC2)nc1 [Example 3, (S)-2-(4-(3-(1-(5-ethylpyrimidin-2-yl)piperidin-4-yl)propoxy)-2,6-difluorophenyl)-4-methyl-4,5-dihydrooxazole] | 192% | 47.8% |
| CCc1cnc(N2CCC(CCCOc3cc(F)c(C4=NCC(C)(C)O4)c(F)c3)CC2)nc1 [Example 6, 2-(4-(3-(1-(5-ethylpyrimidin-2-yl)piperidin-4-yl)propoxy)-2,6-difluorophenyl)-5,5-dimethyl-4,5-dihydrooxazole] | 33.5% | 102% |
| CCc1cnc(N2CCC(CCCOc3cc(F)c(C4=NC[C@@H](CO)O4)c(F)c3)CC2)nc1 [Example 8, (S)-(2-(4-(3-(1-(5-ethylpyrimidin-2-yl)piperidin-4-yl)propoxy)-2,6-difluorophenyl)-4,5-dihydrooxazol-5-yl)methanol] | 144% | 393% |
| CC(C)Cc1nc(-c2cnc(N3CCC(CCCOc4cc(F)c(C5=NC[C@@H](C)O5)c(F)c4)CC3)nc2)no1 [Example 9, (R)-3-(2-(4-(3-(3,5-difluoro-4-(5-methyl-4,5-dihydrooxazol-2-yl)phenoxy)propyl)piperidin-1-yl)pyrimidin-5-yl)-5-isobuty-1,2,4-oxadiazole] | 97.1% | 241% |
| CC(C)c1noc(N2CCC(CCCOc3cc(F)c(C4=N[C@H](C)CO4)c(F)c3)CC2)n1 [Example 10, (R)-5-(4-(3-(3,5-difluoro-4-(4-methyl-4,5-dihydrooxazol-2-yl)phenoxy)propyl)piperidin-1-yl)-3-isopropyl-1,2,4-oxadiazole] | 192% | 266% |
| CCCc1nc(-c2c(F)cc(OCCCC3CCN(c4ncc(CC)cn4)CC3)cc2F)no1 [Example 14, 3-(4-(3-(1-(5-ethylpyrimidin-2-yl)piperidin-4-yl)propoxy)-2,6-difluorophenyl)-5-propyl-1,2,4-oxadiazole] | 96% | 131% |
| CCc1cnc(N2CCC(CCCOc3cc(F)c(-c4noc(C(C)(C)C)n4)c(F)c3)CC2)nc1 [Example 16, 5-(tert-butyl)-3-(4-(3-(1-(5-ethylpyrimidin-2-yl)piperidin-4-yl)propoxy)-2,6-difluorophenyl)-1,2,4-oxadiazole] | 108% | 321% |
| CCc1cnc(N2CCC(CCCOc3cc(F)c(-c4noc(CO)n4)c(F)c3)CC2)nc1 [Example 17, (3-(4-(3-(1-(5-ethylpyrimidin-2-yl)piperidin-4-yl)propoxy)-2,6-difluorophenyl)-1,2,4-oxadiazol-5-yl)methanol] | 116% | 216% |
| CCc1cnc(N2CCC(CCCOc3cc(F)c(-c4noc(CCO)n4)c(F)c3)CC2)nc1 [Example 18, 2-(3-(4-(3-(1-(5-ethylpyrimidin-2-yl)piperidin-4-yl)propoxy)-2,6-difluorophenyl)-1,2,4-oxadiazol-5-yl)ethan-1-ol] | 303% | 436% |
| CCc1cnc(N2CCC(CCCOc3cc(F)c(-c4noc(C[C@@H](C)O)n4)c(F)c3)CC2)nc1 [Example 20, (R)-1-(3-(4-(3-(1-(5-ethylpyrimidin-2-yl)piperidin-4-yl)propoxy)-2,6-difluorophenyl)-1,2,4-oxadiazol-5-yl) propan-2-ol] | 235% | 413% |
| CCc1cnc(N2CCC(CCCOc3cc(F)c(-c4noc(C[C@H](C)O)n4)c(F)c3)CC2)nc1 [Example 21, (S)-1-(3-(4-(3-(1-(5-ethylpyrimidin-2-yl)piperidin-4-yl)propoxyl)-2,6-difluorophenyl)-1,2,4-oxadiazol-5-yl) propan-2-ol] | 160% | 336% |
| COc1cnc(N2CCC(CCCOc3cc(F)c(-c4noc(C(C)C)n4)c(F)c3)CC2)nc1 [Example 26, 3-(2,6-difluoro-4-(3-(1-(5-methoxypyrimidin-2-yl)piperidin-4-yl)propoxy)phenyl)-5-isopropyl-1,2,4-oxadiazole] | 67.8% | 165% |

The next lines start with the values.

| Emax at 0.001 µM | Emax at 0.01 µM | Compound |
| --- | --- | --- |
| 9.4% | 123% | CC(C)Oc1cnc(N2CCC(CCCOc3cc(F)c(-c4noc(C(C)C)n4)c(F)c3)CC2)nc1 [Example 27, 3-(2,6-difluoro-4-(3-(1-(5-isopropoxypyrimidin-2-yl)piperidin-4-yl)propoxy)phenyl)-5-isopropyl-1,2,4-oxadiazole] |
| 75.3% | 173% | CC(C)c1nc(-c2c(F)cc(OCCCC3CCN(c4ncc(Br)cn4)CC3)cc2F)no1 [Example 29, 3-(4-(3-(1-(5-bromopyrimidin-2-yl)piperidin-4-yl)propoxy)-2,6-difluorophenyl)-5-isopropyl-1,2,4-oxadiazole] |
| 103% | 172% | Cc1nc(-c2c(F)cc(OCCCC3CCN(c4ncc(-c5noc(CC(C)C)n5)cn4)CC3)cc2F)no1 [Example 30, 3-(2,6-difluoro-4-(3-(1-(5-(5-isobutyl-1,2,4-oxadiazol-3-yl)pyrimidin-2-yl)piperidin-4-yl)propoxy)phenyl)-5-methyl-1,2,4-oxadiazole] |
| 59.4% | 116% | CCc1nc(-c2c(F)cc(OCCCC3CCN(c4ncc(-c5noc(CC(C)C)n5)cn4)CC3)cc2F)no1 [Example 31, 3-(2,6-difluoro-4-(3-(1-(5-(5-isobutyl-1,2,4-oxadiazol-3-yl)pyrimidin-2-yl)piperidin-4-yl)propoxy)phenyl)-5-ethyl-1,2,4-oxadiazole] |
| 201% | 288% | CC(C)Cc1nc(-c2cnc(N3CCC(CCCOc4cc(F)c(-c5noc(C(C)C)n5)c(F)c4)CC3)nc2)no1 [Example 32, 3-(2,6-difluoro-4-(3-(1-(5-(5-isobutyl-1,2,4-oxadiazol-3-yl)pyrimidin-2-yl)piperidin-4-yl)propoxy)phenyl)-5-isopropyl-1,2,4-oxadiazole] |
| 66.8% | 108% | CCC(C)c1nc(-c2c(F)cc(OCCCC3CCN(c4ncc(-c5noc(CC(C)C)n5)cn4)CC3)cc2F)no1 (stereo not drawn) [Example 33, 5-(sec-butyl)-3-(2,6-difluoro-4-(3-(1-(5-(5-isobutyl-1,2,4-oxadiazol-3-yl)pyrimidin-2-yl)piperidin-4-yl)propoxy)phenyl)-1,2,4-oxadiazole] |
| 82.1% | 134% | COCc1nc(-c2c(F)cc(OCCCC3CCN(c4ncc(-c5noc(CC(C)C)n5)cn4)CC3)cc2F)no1 [Example 34, 3-(2,6-difluoro-4-(3-(1-(5-(5-isobutyl-1,2,4-oxadiazol-3-yl)pyrimidin-2-yl)piperidin-4-yl)propoxy)phenyl)-5-(methoxymethyl)-1,2,4-oxadiazole] |
| 52.5% | 118% | CC[C@H](O)c1nc(-c2c(F)cc(OCCCC3CCN(c4ncc(-c5noc(CC(C)C)n5)cn4)CC3)cc2F)no1 [Example 35, (S)-1-(3-(2,6-difluoro-4-(3-(1-(5-(5-isobutyl-1,2,4-oxadiazol-3-yl)pyrimidin-2-yl)piperidin-4-yl)propoxy)phenyl)-1,2,4-oxadiazol-5-yl) propan-1-ol] |
| 66.4% | 174% | CC(C)Cc1nc(-c2cnc(N3CCC(CCCOc4cc(F)c(-c5noc(C(C)(C)CO)n5)c(F)c4)CC3)nc2)no1 [Example 36, 2-(3-(2,6-difluoro-4-(3-(1-(5-(5-isobutyl-1,2,4-oxadiazol-3-yl)pyrimidin-2-yl)piperidin-4-yl)propoxy)phenyl)-1,2,4-oxadiazol-5-yl)-2-methylpropan-1-ol] |
| 52.1% | 307% | CC(C)c1nc(-c2c(F)cc(OCCCC3CCN(c4cnc(Cl)cn4)CC3)cc2F)no1 [Example 37, 3-(4-(3-(1-(5-chloropyrazin-2-yl)piperidin-4-yl)propoxy)-2,6-difluorophenyl)-5-isopropyl-1,2,4-oxadiazole] |
